pIC50: −log10 of the molar value. Activity calls are given as the source filed them. No rule for the calls is given here. Bounds are passed on as bounds.

This assay deals with Jurkat NF-kB reporter, TCR-induced, luciferase luminescence. The experiment in a line: inhibitors of TCR-driven NF-kB activation, dose response, Jurkat cells, luminescence (AID 489035).
The pIC50 is −log10 of the IC50, conventionally taken in molar units. As for `O=C(Sc1cccc2cccnc12)c1ccc(F)cc1`, the pIC50 is 6.00.
The term IC50 denotes the concentration that inhibits the measured activity by half. For the molecule `COc1ccccc1C(=O)N(CCC1CCCN1C)c1nc2ccccc2s1` (configuration not stated), the IC50 was 45.7 µM (inactive).
For the molecule `CSc1ccc(COC(=O)c2cc([N+](=O)[O-])ccc2N2CCOCC2)cc1`, the IC50 was > 80 µM (inactive).
For `COc1cc(/C=C/C(=O)c2ccc([N+](=O)[O-])o2)ccc1O`, the pIC50 is 5.73.
On the same count and under the same terms, under `C=CCNC(=S)N/N=C(\C)c1ccccn1` stands 5.96.
Turning to `Cc1ccc(O)c(NC(=O)CCC2CCCCC2)c1`, the IC50 was > 80 µM (inactive).
Turning to `Cc1c(C(=O)OCC(C)C)[nH]c2c1C(=O)CC(c1cccs1)C2` (configuration not stated), the IC50 is > 80 µM (inactive).
Turning to `CC(=O)c1c(C)[nH]c(C(=O)OCC(=O)Nc2ccc(C)cc2[N+](=O)[O-])c1C`, the IC50 was > 80 µM (inactive).
The same measure, in the same setting: with `CCOc1cccc(/C=N/Nc2ccc(S(=O)(=O)N(CC)CC)cn2)c1O` the figure was 21.8 µM (inactive).
Take `CC1Cc2cc(-c3csc(NC(=O)Cc4cccs4)n3)ccc2N1S(C)(=O)=O` (configuration not stated): the pIC50 is 5.27.
Take `C/C=C(\C)C(=O)N[C@@H](c1ccccc1)[C@@H](O)C(=O)O[C@H]1C[C@@]2(O)[C@@H](OC(=O)c3ccccc3)C3[C@](C)(C(=O)[C@H](OC(C)=O)C(=C1C)C2(C)C)[C@@H](O)C[C@H]1OC[C@@]31OC(C)=O` (some centres not stated): the negative logarithm of the IC50 (pIC50) was above 6.80.
On to `Cc1ccc(O)c(N=Nc2nccs2)c1`, for which the pIC50 is 5.75.
In the case of `Cc1ccc2oc(/N=C(\N)NC(=O)C(C)(C)C)nc2c1`, the pIC50 was 5.18.
The same measure, in the same setting: under `CCCCCCCCCCCCCCCC[n+]1ccc(C(N)=O)cc1` stands 5.83.
Consider `Cc1ccccc1NS(=O)(=O)c1ccc(N2CCCC2=O)cc1`, for which the IC50 was 71.8 µM (inactive).
Consider `Cc1noc(C)c1COc1ccc(CC(=O)NCc2ccccc2)cc1`, for which the IC50 is > 80 µM (inactive).
On to `Cc1nc(SCC(=O)Nc2nc3ccccc3s2)c(C#N)c(C)c1C`, for which the pIC50 was 6.12.
In the case of `Cc1cc(C)c(CN2CCN(C(=O)Cn3cnc4c(OCc5ccccc5)ncnc43)CC2)c(C)c1`, the IC50 was > 80 µM (inactive).
For `CCCCCCCCCn1c2c(c(=N)c3c1CCC3)CCCC2`, the pIC50 was 5.47.
Turning to `COc1ccc(OC)c(COC(=O)c2cc([N+](=O)[O-])ccc2N2CCOCC2)c1`, the IC50 is 71.8 µM (inactive).
For the molecule `CCN(CC)S(=O)(=O)c1cc(NC(=O)CNc2cccc(S(=O)(=O)N3CCCC3)c2)ccc1C`, the IC50 was > 80 µM (inactive).
On to `CCCCCCCCCCn1ccc(=N)cc1`, for which the negative logarithm of the IC50 (pIC50) was 5.42.
As for `C[C@]12CC[C@H]3[C@@H](CC[C@]4(O)C[C@@H](O)CC[C@]34C=O)[C@@]1(O)CC[C@@H]2C1=CC(=O)OC1`, the IC50 is 68.9 µM (inactive).
`COc1cc(OC)c(/C=C2\C(=O)Nc3ccccc32)c(OC)c1`: the pIC50 is 4.74.
As for `Cc1cc(/C=C2\Sc3ccccc3N2C)cc(C)[n+]1CC1CCCO1` (configuration not stated), the pIC50 is 4.72.
Consider `CN(C)c1ccc(-c2nn3c(-c4ccccc4Cl)nnc3s2)cc1`, for which the IC50 was > 80 µM (inactive).
With `O=C(Nc1ncc(Cc2ccc(SC(F)F)cc2)s1)c1ccc(OC(F)F)cc1`, the pIC50 is 5.13.
For `COc1ccccc1N=C(C)C1=C(O)CC(c2ccccc2)CC1=O` (configuration not stated), the IC50 was > 80 µM (inactive).
For the molecule `CCCOC(=O)c1[nH]c2c(c1C)C(=O)CC(c1cccs1)C2` (configuration not stated), the IC50 was 32.1 µM (inactive).
As to `COC(=O)[C@]12OC[C@]34C([C@@H](O)[C@@H]1O)[C@]1(C)CC(=O)C(O)=C(C)[C@@H]1C[C@H]3OC(=O)[C@H](O)[C@@H]24` (some centres not stated), the negative-log IC50 (pIC50) is above 6.80.
As for `CC/C=C/CC(=O)N[C@@H](c1ccccc1)[C@@H](O)C(=O)O[C@H]1C[C@@]2(O)[C@@H](OC(=O)c3ccccc3)C3[C@](C)(C(=O)[C@H](OC(C)=O)C(=C1C)C2(C)C)[C@@H](O)C[C@H]1OC[C@@]31OC(C)=O` (some centres not stated), the IC50 is > 80 µM (inactive).
For the molecule `O=C(Nc1ccc(Cl)c(S(=O)(=O)N2CCOCC2)c1)c1ccc(OCC2CCCO2)cc1` (configuration not stated), the pIC50 was 4.74.
On to `Cc1ccc(NC(=O)C2=C(c3ccccc3)S(=O)(=O)CCS2(=O)=O)cc1`, for which the pIC50 is 5.79.
`CCOC(=O)COc1cccc2c(=O)n(CC(=O)NCc3ccc(F)cc3)ccc12`: the IC50 is > 80 µM (inactive).
With `Cc1nn(C)c(C)c1CN(Cc1nc(CCC(C)C)no1)C(C)C`, the IC50 was > 80 µM (inactive).
On to `O=C(Nc1ccc(S(=O)(=O)N2CCCCC2)cc1)c1ccc(CN2CCOCC2)cc1`, for which the pIC50 is 4.78.
`COc1ccc2c(C)nc(Nc3nc(-c4ccccc4)cc(=O)[nH]3)nc2c1`: the IC50 was > 80 µM (inactive).
In the case of `O=C(c1cc(-c2ccncc2)nc2c(Cl)cccc12)N1CCN(c2ccccc2F)CC1`, the IC50 was > 80 µM (inactive).
For `COc1ccc(OC)c(CCNC(=O)Cn2nc(C)c3c(C)n(-c4ccc(C)cc4)nc3c2=O)c1`, the pIC50 is 5.12.
For the molecule `CCCCCCCCn1c2c(c(=N)c3c1CCC3)CCCC2`, the negative logarithm of the IC50 (pIC50) was 5.33.
In the case of `CC(C)(C)C(=O)Nc1ccc(NC(=O)c2ccco2)nc1`, the negative-log IC50 (pIC50) is 6.09.
As for `CC[n+]1cc(C)ccc1/C=C/c1ccc(N(C)C)cc1`, the IC50 is > 80 µM (inactive).
As for `Cc1ccc(C)c(NS(=O)(=O)c2ccc(-c3cnc(C4CC4)o3)cc2)c1`, the negative logarithm of the IC50 (pIC50) is 4.86.
For `CCOCCCNC(=O)c1cc2c(=O)n3cccc(C)c3nc2n1C`, the IC50 is > 80 µM (inactive).
Regarding `COC(=O)c1ccc(Oc2cc(C)nc(SC)n2)cc1`, the IC50 is > 80 µM (inactive).
Take `CCOC(=O)c1[nH]c(C)c(C(=O)c2cc(F)ccc2F)c1C`: the IC50 was > 80 µM (inactive).
As to `CCCCC(=O)NC(c1ccc(N(C)C)cc1)c1ccc2cccnc2c1O` (configuration not stated), the IC50 was > 80 µM (inactive).
Consider `COc1ccc([N+](=O)[O-])cc1Nc1c2ccccc2nc2ccccc12`, for which the IC50 was 50.7 µM (inactive).
For `COCCn1c(C)cc(C2=NNC(=Nc3ccccc3F)SC2)c1C`, the IC50 was 64.3 µM (inactive).
`CCOC(=O)c1[nH]c2c(c1C)C(=O)CC(c1ccc(F)cc1)C2` (configuration not stated): the IC50 is > 80 µM (inactive).
Consider `COc1ccc(/C=C/C(=O)c2cc(F)ccc2OC(=O)c2ccccc2)cc1OC`, for which the pIC50 was 5.60.
As to `C[C@@H]1O[C@@H](O[C@H]2C[C@@H](O)[C@]3(CO)[C@H]4[C@H](O)C[C@]5(C)[C@@H](C6COC(=O)C6)CC[C@]5(O)[C@@H]4CC[C@]3(O)C2)[C@H](O)[C@H](O)[C@H]1O` (some centres not stated), the IC50 was > 80 µM (inactive).
As to `Cc1ccc2nc(C)c(CN3CCN(c4ccc([N+](=O)[O-])cc4Cl)CC3)n2c1`, the IC50 was 26.6 µM (inactive).
Regarding `COc1cc(NS(=O)(=O)c2ccc(OC)c(C)c2C)c(OC)cc1Cl`, the IC50 was > 80 µM (inactive).
Take `COc1cc(-c2noc(C)c2C#Cc2ccsc2)cc(OC)c1OC`: the IC50 was > 80 µM (inactive).
As to `Cc1nnc(N/N=C/c2ccccn2)[nH]c1=O`, the pIC50 is 5.93.
As for `COC(=O)c1ccccc1NC(=O)CSc1nc(-c2ccco2)cc(C(F)(F)F)n1`, the IC50 was 72.2 µM (inactive).
Turning to `Cc1ccc(C(=O)N/N=C/c2ccc([N+](=O)[O-])s2)cc1`, the pIC50 is 5.90.
On to `Cc1ccc(C(=O)c2cc([N+](=O)[O-])ccc2N2CCOCC2)cc1C`, for which the pIC50 is 4.71.
Turning to `CCN(CC)c1ccc(/C=C/c2ccc3ccc(OC)cc3[n+]2CC)cc1`, the IC50 is 51.9 µM (inactive).
On to `O=[N+]([O-])c1nn(-c2ccc3c(c2)OCCO3)n(O)c1=Nc1ccccc1`, for which the pIC50 was 5.98.
Take `COc1ccc(OC)c(NS(=O)(=O)c2ccc(N3CCCC3=O)cc2)c1`: the IC50 was > 80 µM (inactive).
Take `CCOC(=O)c1c(C)[nH]c(C(=O)N/N=C/c2ccc(Br)cc2)c1C`: the pIC50 is 5.03.
Regarding `CCCOCCOC(=O)c1[nH]c2c(c1C)C(=O)CC(c1cc(OC)ccc1OC)C2` (configuration not stated), the IC50 was > 80 µM (inactive).
In the case of `O=S1(=O)C=C(Sc2nc3ccccc3s2)c2ccccc21`, the pIC50 is 6.59.
On to `Cc1ccc(C(=O)O/N=C(\N)c2ccccn2)c(Cl)c1`, for which the negative-log IC50 (pIC50) is 5.95.
As for `COC(=O)c1[nH]c2c(c1C)C(=O)CC(c1cccc(OC)c1)C2` (configuration not stated), the IC50 is > 80 µM (inactive).
Consider `COc1cccc(/C=N/Nc2ccc(C(=O)O)cc2)c1O`, for which the pIC50 is 6.55.
In the case of `CCOc1ccccc1C1CC(=O)Nc2cc3c(cc21)OCO3` (configuration not stated), the IC50 was 67.1 µM (inactive).
For `CCO[C@@H]1OC(C(=O)NCc2nc3ccccc3[nH]2)=C[C@H](C(C)(C)C)[C@H]1CCCO`, the IC50 was > 80 µM (inactive).
Consider `COc1ccc(NC(=O)/C(Cl)=C(/Cl)S(=O)Cc2ccccc2Cl)cn1` (configuration not stated), for which the pIC50 is 6.19.
For `COc1cc(C2C3=C(Nc4ncnn42)c2ccccc2CC3)cc(OC)c1OC` (configuration not stated), the pIC50 was 5.17.
As to `Cc1ccc2nc(SCC(=O)Nc3cc(C(F)(F)F)ccc3N3CCOCC3)[nH]c2c1`, the IC50 is > 80 µM (inactive).
For the molecule `Cc1ccc(Nc2nc(-c3c(C)nc4ccccn34)cs2)cc1`, the IC50 is 24.6 µM (inactive).
Consider `Cc1c(C)c2ccc(OCC(=O)Nc3ccccn3)c(C)c2oc1=O`, for which the pIC50 was 6.41.
Turning to `COc1cc(C(=O)N2CCN(c3cccc(C)c3C)CC2)cc(OC)c1OC`, the IC50 was > 80 µM (inactive).
In the case of `CCCCCCCCCCn1c2c(c(=N)c3c1CCC3)CCC2`, the pIC50 is 5.29.
Consider `C/C(=N\NC(=O)c1ccc(Cl)c(Cl)c1)c1ccccn1`, for which the negative logarithm of the IC50 (pIC50) was 5.89.
In the case of `O=[N+]([O-])c1ccc(Sc2ccc(Cl)c(Cl)c2)nc1`, the pIC50 is 5.52.
Regarding `CC1C/C(=C/c2ccncc2)C(=O)/C(=C/c2ccncc2)C1` (configuration not stated), the pIC50 is 5.86.
On to `CCC(=O)N1c2ccc(S(=O)(=O)N3CCN(c4ccc([N+](=O)[O-])cc4)CC3)cc2CC1C` (configuration not stated), for which the IC50 was > 80 µM (inactive).
With `Cc1cc(C)cc(NC(=O)c2ccc([N+](=O)[O-])o2)c1`, the pIC50 was 6.02.
As for `O=[N+]([O-])c1ccc(O)c(/C=N/Nc2ccc(Cl)nn2)c1`, the IC50 was 54 µM (inactive).
Turning to `COc1cc(NCCCCCCCN)c2ncccc2c1`, the IC50 was 21 µM (inactive).
As to `CCOCCCNC(=O)c1ccc2c(c1)N=C(CC)c1cc(Br)ccc1S2`, the pIC50 is 5.25.
As to `Cn1ncc2c(N3CCN(c4ccc(Cl)c(Cl)c4)CC3)ncnc21`, the negative logarithm of the IC50 (pIC50) was 5.12.
As to `CCCc1cc(C(=O)N/N=C/c2ccc(CC)s2)c2ccccc2n1`, the pIC50 was 4.89.

The record behind these values is PubChem BioAssay AID489035 (Sanford-Burnham Center for Chemical Genomics, 2010).
